Source: patent US11760744B2, “Fused ring compounds” (Genentech, Inc., priority 2018, dated 2023)

How the values were obtained:
[1] = target: T1, K-Ras G12C mutant protein (Homo sapiens, UniProt P01116, G12C); assay: K-Ras G12C HTRF assay; format: biochemical; details: Table 1; unit or assay not given; several values in one cell
T1 construct: K-Ras G12C (residues 2-188) and SOS1 (residues 564-1049) had N-terminal 6-His; made in house; host or cells: E. coli
Method: In the above definition of R^2, the electrophilic moiety that is capable of forming a covalent bond with a cysteine residue is determined via K-Ras G12C-alkylation studies and Homogeneous Time Resolved Fluorescence (HTRF) assays. The G12C mutation of the K-Ras gene is a change in amino acid from glycine to cysteine at the 12th amino acid. The compounds according to the present disclosure were discovered using the HTRF assay and the K-Ras G12C-alkylation assay, as further detailed elsewhere herein below, and then NMR spectroscopy was later used to validate the specificity with which the molecule was attaching to G12C.

K-Ras G12C [2] = target: T2, K-Ras G12C (Homo sapiens, UniProt P01116, G12C); assay: Western blot assay for in cell alkylation of K-Ras G12C (HCC1171 cells); format: cell-based; parameters: endogenous in cells; host or cells: HCC1171; details: 18 hours at 37° C., 7 point dose response
Procedure, shortened: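 HCC1171 cells exposed to compounds for 18 h at 37° C, lysed, and analysed by SDS-PAGE/western blot with anti-K-Ras antibody and fluorescent secondary. Alkylated K-Ras separated by band shift; % alkylation = FI(alkylated)/(FI(alkylated)+FI(unalkylated))×100, IC50 from 7-point dose response.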
Target sequence in this assay (P01116 1-188 isoform P01116-2 G12C): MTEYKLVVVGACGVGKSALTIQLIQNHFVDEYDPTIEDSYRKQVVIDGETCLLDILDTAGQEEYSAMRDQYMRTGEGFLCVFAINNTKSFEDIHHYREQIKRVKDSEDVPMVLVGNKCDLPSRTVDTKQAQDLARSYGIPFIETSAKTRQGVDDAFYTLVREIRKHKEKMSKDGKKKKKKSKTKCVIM

K-Ras G12C [3] = target: T2, K-Ras G12C; assay: K-Ras G12C, SOS1, Raf RBD HTRF assay for inhibition of GTP exchange; format: biochemical; parameters: K-Ras G12C (residues 2-188) and SOS1 (residues 564-1049) had N-terminal 6-His; made in house; host or cells: E. coli; details: 18 hours preincubation with K-Ras G12C at room temperature; SOS1-mediated GTP exchange
Procedure, shortened: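 After 18 h at room temperature with compound, SOS1 (1.25 nM final) started exchange to GTP (150 μM final). C-Raf RBD, Tb-anti-FLAG and D2-anti-his (50, 1 and 12.5 nM) were then added. The 665/615 nm HTRF ratio was read after 2 h; buffer was HEPES/NaCl, 1 mM MgCl2, BSA, Tween-20 and DTT.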
Target sequence in this assay (P01116 2-188 isoform P01116-2 G12C): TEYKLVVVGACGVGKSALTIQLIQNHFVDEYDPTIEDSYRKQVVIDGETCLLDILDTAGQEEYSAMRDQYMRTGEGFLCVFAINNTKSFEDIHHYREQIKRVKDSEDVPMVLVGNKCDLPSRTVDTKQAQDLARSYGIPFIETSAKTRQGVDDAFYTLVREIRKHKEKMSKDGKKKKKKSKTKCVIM

[4] = Whole blood stability assay; format: in vitro ADME; details: fresh whole blood, drug 1 μM, 37° C., 180 minutes incubation
Method: Whole Blood Stability Assay A whole blood stability assay was performed using fresh blood with a drug final concentration of 1 μM. The drug-blood mixtures were incubated at 37° C. for 180 minutes.

T1 sequence (P01116 2-188 isoform P01116-2 G12C): as above

Compound | IC50 [1] [nM] | EC50 (K-Ras G12C [2]) [nM] | IC50 (K-Ras G12C [3]) [nM] | half-life at 1 μM [4] [h]
C=CC(=O)N1CCN(c2ncnc3c2CCC(c2c(C)ccc4[nH]ncc24)C3)CC1 (racemic) [Example 2, 1-(4-(7-(5-methyl-1H-indazol-4-yl)-5,6,7,8-tetrahydroquinazolin-4-yl)piperazin-1-yl)prop-2-en-1-one] | 840 | 6100 | 840 | 
C=CC(=O)N1CCN(c2nc(OC[C@@H]3CCCN3C)nc3c2C[C@@H](C)[C@H](c2c(F)c(N)cc(C)c2C(F)(F)F)C3)[C@@H](C)C1 (single isomer, unassigned) [Example 12b] |  | 3.3 | < 10 | > 9
C=CC(=O)N1CCN(c2nc(OC[C@@H]3CCCN3C)nc3c2C[C@@H](C)[C@H](c2nc(N)cc(C)c2C(F)(F)F)C3)CC1 (single isomer, unassigned) [Example 20a] |  | 14 | < 10 | 3.83
C=CC(=O)N1CCN(c2nc(OC[C@@H]3CCCN3C)nc3c2C[C@@H](C)[C@H](c2nc(N)cc(C)c2C(F)(F)F)C3)[C@@H](C)C1 (single isomer, unassigned) [Example 21b] |  | 6 | < 10 | > 9
C=CC(=O)N1CCN(c2nc(OC[C@@H]3CCCN3C)nc3c2C[C@@H](C)[C@H](c2cc(O)cc4ccccc24)C3)[C@@H](C)C1 (single isomer, unassigned) [Example 22b] |  | 6.1 | < 10 | > 9
C=CC(=O)N1CCN(c2nc(OC[C@@H]3CCCN3C)nc3c2C[C@@H](C)[C@H](c2c(C(F)(F)F)ccc(N)c2F)C3)[C@@H](C)C1 (single isomer, unassigned) [Example 23b] |  | 6.6 | < 10 | 4.67
C=CC(=O)N1CCN(c2nc(OC[C@@H]3CCCN3C)nc3c2CC[C@H](c2cc(O)cc4ccccc24)C3)[C@@H](C)C1 (single isomer, unassigned) [Example 28b] |  | 23 | < 10 | 7
C=CC(=O)N1CCN(c2nc(OC[C@@H]3C[C@@H](F)CN3C)nc3c2CC[C@H](c2cc(O)cc4ccccc24)C3)[C@@H](C)C1 (single isomer, unassigned) [Example 31a] |  | 13 | < 10 | 6.83
C=C(F)C(=O)N1CCN(c2nc(OC[C@@H]3CCCN3C)nc3c2C[C@@H](C)[C@H](c2c(F)c(N)cc(C)c2C(F)(F)F)C3)C[C@@H]1CC#N (single isomer, unassigned) [Example 34c] |  | 14 | < 10 | > 9
C=C(F)C(=O)N1CCN(c2nc(OC[C@@H]3CCCN3C)nc3c2CC(C)C(c2c(F)c(N)cc(C)c2C(F)(F)F)C3)CC1CC#N (single isomer, unassigned) [Example 34d] |  | 6.7 | < 10 | > 9
C=CC(=O)N1CCN(c2nc(OC[C@@H]3CCCN3C)nc3c2C[C@@H](C)[C@H](c2cccc4c2CCC4)C3)C[C@H]1CC#N (single isomer, unassigned) [Example 35b] |  | 17 | 11 | 1.52
C=CC(=O)N1CCN(c2nc(OC[C@@H]3CCCN3C)nc3c2C[C@@H](C)[C@H](c2cccc4c2CCC4)C3)C[C@@H]1CC#N (single isomer, unassigned) [Example 35d] |  | 0.98 | < 10 | 1.45
C=CC(=O)N1CCN(c2nc(OC[C@@H]3C[C@@H](F)CN3C)nc3c2C[C@@H](C)[C@H](c2c(F)c(N)cc(C)c2C(F)(F)F)C3)[C@@H](C)C1 (single isomer, unassigned) [Example 36b] |  | 6 | < 10 | > 9
C=CC(=O)N1CCN(c2nc(OC[C@@H]3C[C@@H](F)CN3C)nc3c2C[C@@H](CC)[C@H](c2c(F)c(N)cc(C)c2C(F)(F)F)C3)[C@@H](C)C1 (single isomer, unassigned) [Example 37a] |  | 4.5 | < 10 | > 9
C=C(F)C(=O)N1CCN(c2nc(OC[C@@H]3C[C@@H](F)CN3C)nc3c2C[C@@H](C)[C@H](c2c(F)c(N)cc(C)c2C(F)(F)F)C3)C[C@@H]1CC#N (single isomer, unassigned) [Example 38b] |  | 3.2 | < 10 | > 9
CN(C)C/C=C/C(=O)Nc1cc2c(Nc3ccc(F)c(Cl)c3)ncnc2cc1O[C@H]1CCOC1 [Afatinib, reference compound] |  |  |  | 1.25
C=CC(=O)N1CCN(c2ncnc3c2CC(C(C)C)C(c2cc(O)cc4ccccc24)C3)CC1 (centres unmarked) [Example 16, 1-(4-(7-(3-hydroxynaphthalen-1-yl)-6-isopropyl-5,6,7,8-tetrahydroquinazolin-4-yl)piperazin-1-yl)prop-2-en-1-one] | 120 | 1200 | 120 | 
C=CC(=O)N1CCN(c2ncnc3c2CCC(c2c(C)ccc4cn[nH]c24)C3)CC1 (centres unmarked) [Example 17, 1-[4-[7-(6-methyl-1H-indazol-7-yl)-5,6,7,8-tetrahydroquinazolin-4-yl]piperazin-1-yl]prop-2-en-1-one] | 700 | 6700 | 700 | 
C=CC(=O)N1CCN(c2ncnc3c2CC(C)C(c2cc(O)cc4ccccc24)C3)CC1 (centres unmarked) [Example 39, 1-(4-(7-(3-hydroxynaphthalen-1-yl)-6-methyl-5,6,7,8-tetrahydroquinazolin-4-yl)piperazin-1-yl)prop-2-en-1-one] | 180 | 720 | 180 | 
C=CC(=O)N1CCN(c2ncnc3c2CCC(c2cc(O)cc4ccccc24)C3)CC1 (centres unmarked) [Example 43, 1-[4-[7-(3-hydroxy-1-naphthyl)-5,6,7,8-tetrahydroquinazolin-4-yl]piperazin-1-yl]prop-2-en-1-one] | 200 |  | 200 | 
C=CC(=O)N1CC2(CCN(c3nc(OCC4CCCN4C)nc4c3CCC(c3cc(O)cc5ccccc35)C4)CC2)C1 (centres unmarked) [Example 51, 1-[7-[7-(3-hydroxy-1-naphthyl)-2-[(1-methylpyrrolidin-2-yl)methoxy]-5,6,7,8-tetrahydroquinazolin-4-yl]-2,7-diazaspiro[3.5]nonan-2-yl]prop-2-en-1-one] | 46 | 330 | 46 | 
C=CC(=O)N1CCN(c2nc(OCCCN3CCOCC3)nc3c2CCC(c2cc(O)cc4ccccc24)C3)C(C)C1 (centres unmarked) [Example 53, 1-(4-(7-(3-hydroxynaphthalen-1-yl)-2-(3-morpholinopropoxy)-5,6,7,8-tetrahydroquinazolin-4-yl)-3-methylpiperazin-1-yl)prop-2-en-1-one] | 22 |  |  | 
C=CC(=O)N1CCN(c2nc(OCc3cn(C)cn3)nc3c2CCC(c2cc(O)cc4ccccc24)C3)C(C)C1 (centres unmarked) [Example 54, 1-(4-(7-(3-hydroxynaphthalen-1-yl)-2-((1-methyl-1H-imidazol-4-yl)methoxy)-5,6,7,8-tetrahydroquinazolin-4-yl)-3-methylpiperazin-1-yl)prop-2-en-1-one] | 470 |  |  | 
C=CC(=O)N1CCN(c2nc(OCC3CCC(=O)N3)nc3c2CCC(c2cc(O)cc4ccccc24)C3)C(C)C1 (centres unmarked) [Example 55, 5-(((4-(4-acryloyl-2-methylpiperazin-1-yl)-7-(3-hydroxynaphthalen-1-yl)-5,6,7,8-tetrahydroquinazolin-2-yl)oxy)methyl)pyrrolidin-2-one] | 1400 |  |  | 
C=CC(=O)N1CC(C)N(c2nc(OCC3CCCN3C)nc3c2CCC(c2cc(O)cc4ccccc24)C3)C(C)C1 (centres unmarked) [Example 56, 1-(4-(7-(3-hydroxynaphthalen-1-yl)-2-((1-methylpyrrolidin-2-yl)methoxy)-5,6,7,8-tetrahydroquinazolin-4-yl)-3,5-dimethylpiperazin-1-yl)prop-2-en-1-one] | 73 |  |  | 
C=CC(=O)Oc1cc(C2CCc3c(nc(OCC4CCCN4C)nc3N3CCN(C(=O)C=C)C(CC#N)C3)C2)c2ccccc2c1 (centres unmarked) [Example 59, 4-(4-(4-acryloyl-3-(cyanomethyl)piperazin-1-yl)-2-((1-methylpyrrolidin-2-yl)methoxy)-5,6,7,8-tetrahydroquinazolin-7-yl)naphthalen-2-yl acrylate] | 250 |  |  | 
C=CC(=O)N1CCN(c2nc(OCC3CCCN3C)nc3c2CCC(c2cc(O)cc4ccccc24)C3)C(CC#N)C1 (centres unmarked) [Example 60, 2-(4-acryloyl-1-(7-(3-hydroxynaphthalen-1-yl)-2-((1-methylpyrrolidin-2-yl)methoxy)-5,6,7,8-tetrahydroquinazolin-4-yl)piperazin-2-yl)acetonitrile] | 26 | 1300 | 26 | 
